Values of other authors as cited in US20220323308A1, “DISSOLVABLE VITAMIN C AND RETINOL FILM” (Mary Kay Inc., priority 2019, published 2022).

Conditions: topical, when properly formulated

O=C1O[C@H]([C@@H](O)CO)C(O)=C1O [ascorbic acid]
enhancement of endogenous ascorbic acid levels in the skin: up to twenty-fold
